Experimental data taken from patent US9856507B2, “Method for screening food ingredients and food compositions” (JAPANESE FOUNDATION FOR CANCER RESEARCH, priority 2013, dated 2018).

Legend:
liver cancer [1] = test: Liver cancer induction by oral deoxycholic acid in mice fed high-fat diets and given antibiotic cocktail; assay type: in vivo; settings: 40 μg/g body weight orally three times a week; HFD + antibiotic cocktail; n=3
Description: From the 13th week after the start of the raising, the antibiotic cocktail was administered to mice fed high-fat diets, which were then further raised. To these mice, 40 μg/g body weight of deoxycholic acid (DCA) or only a vehicle as a control was orally administered three times a week (FIG. 6A). […] The mice given deoxycholic acid developed a large number of liver tumors (indicated by Δ in the diagram), whereas cancer development was rarely seen in the control mouse group given only the vehicle. […] The cancer was rarely developed in the control mouse group given only the vehicle, and even if the cancer was developed, its tumor size was small. On the other hand, the deoxycholic acid administration group had multiple cancer (25 or more tumors per individual), and also, its size was large.

liver cancer [2] = test: Liver cancer development in DMBA-treated mice fed high-fat diets, antibiotic in drinking water; assay type: in vivo; settings: dissected at 30th week; antibiotic from 13 weeks old; compared with control
Description: An acetone solution containing 0.5% of the carcinogenic substance DMBA (7,12-dimethylbenz[a]anthracene) was applied once to the backs of wild-type (C57BL/6) neonatal mice. The neonatal mice were raised together with their mother mouse by feeding with normal diets (ND) or high-fat diet (HFD) until 4 weeks old. The high-fat diets used were D12492 (Rodent Diet with 60% kcal % Fat; Research Diets, Inc., USA). The neonatal mice were weaned at 4 weeks old and subsequently raised with normal diets or high-fat diet. At 30 weeks old, their livers and lungs were excised, and the presence or absence of cancer development was analyzed. The average body weight of the mice at the time of dissection was 33 g for the mice fed normal diets and 51 g for the mice fed high-fat diets. The mice fed high-fat diets had approximately 1.5 times the body weights of the mice fed normal diets.
DMBA was applied to wild-type neonatal mice, followed by high-fat diet feeding. From 13 weeks old, an antibiotic cocktail (4Abx, antibiotic cocktail administration group) or vancomycin (VCM, vancomycin administration group) mixed with drinking water was administered to the mice. At the 30th week after the start of the raising, their livers were excised, and liver cancer development was analyzed. […]
The mice of each group were dissected at the 30th week, and liver cancer development was analyzed (FIGS. 4C and 4D).

intestinal bacteria = test: Level of gene encoding intestinal bacterial 16S rRNA after antibiotic administration; assay type: in vivo, mice; settings: 17 weeks after antibiotic administration, 30 weeks after birth; high-fat diet, drinking water
Description: DMBA was applied to wild-type neonatal mice, followed by high-fat diet feeding. From 13 weeks old, an antibiotic cocktail (4Abx, antibiotic cocktail administration group) or vancomycin (VCM, vancomycin administration group) mixed with drinking water was administered to the mice. At the 30th week after the start of the raising, their livers were excised, and liver cancer development was analyzed. On the other hand, the raising of a control group was continued in the same way as the aforementioned raising up to the 13th week. The antibiotic cocktail contained ampicillin (1 g/l), neomycin (1 g/l), metronidazole (1 g/l), and vancomycin (500 mg/l). Also, in the case of administering vancomycin alone, 500 mg/l was administered.

gut microbiota = test: Gut microbiota analysis by PCR of 16S rRNA gene from feces; assay type: in vivo, mice
Description: Next, alteration in gut microbiota caused by antibiotic administration conducted in Example 3 will be shown. In the experimental schedule shown in FIG. 4A, 3 groups were used: a group fed normal diets, a group fed high-fat diets, and a group fed high-fat diets and also given vancomycin. The gut microbiota was analyzed.
The gut microbiota was identified by PCR analysis (Non Patent Literatures 11 and 12). Specifically, DNA was extracted from the feces and purified. The gene encoding 16S rRNA in many types of bacteria was amplified by PCR using universal primers. The V1-V4 hypervariable regions were further amplified, followed by identification.

## C[C@H](CCC(=O)O)[C@H]1CC[C@H]2[C@@H]3CC[C@@H]4C[C@H](O)CC[C@]4(C)[C@H]3C[C@H](O)[C@]12C [deoxycholic acid]
Liver cancer [1]
  tumor size (liver): large
  tumors per individual (liver): ≥ 25

## CN[C@H](CC(C)C)C(=O)N[C@H]1C(=O)N[C@@H](CC(N)=O)C(=O)N[C@H]2C(=O)N[C@H]3C(=O)N[C@H](C(=O)N[C@H](C(=O)O)c4cc(O)cc(O)c4-c4cc3ccc4O)[C@H](O)c3ccc(c(Cl)c3)Oc3cc2cc(c3O[C@@H]2O[C@H](CO)[C@@H](O)[C@H](O)[C@H]2O[C@H]2C[C@](C)(N)[C@H](O)[C@H](C)O2)Oc2ccc(cc2Cl)[C@H]1O [vancomycin]
Liver cancer [2]
  liver cancer development (tumor number and size): developed no liver cancer or developed liver cancer with a smaller tumor number and a smaller size as compared with the control
Intestinal bacteria
  amount of intestinal bacteria (level of gene encoding 16S rRNA): decreased into a very small level
Gut microbiota; HFD+VCM group, on average (FIG. 5)
  Gram-negative microbiota, average: 99%
Gut microbiota; high-fat diet plus vancomycin group, n=2
  cluster XI of the genus Clostridium: 0%
